Consider 10 molecules from US20110230493A1, “1-OXA-8-Azaspiro [4,5] Decabe-8-Carboxamide Compounds as FAAH Inhibitors” (Pfizer Inc., priority 2008, published 2011).

In one experiment the target is T1, rat FAAH (Rattus norvegicus, UniProt P97612).
T1 construct: made in house; host or cells: E. coli
T1 sequence (P97612 1-579): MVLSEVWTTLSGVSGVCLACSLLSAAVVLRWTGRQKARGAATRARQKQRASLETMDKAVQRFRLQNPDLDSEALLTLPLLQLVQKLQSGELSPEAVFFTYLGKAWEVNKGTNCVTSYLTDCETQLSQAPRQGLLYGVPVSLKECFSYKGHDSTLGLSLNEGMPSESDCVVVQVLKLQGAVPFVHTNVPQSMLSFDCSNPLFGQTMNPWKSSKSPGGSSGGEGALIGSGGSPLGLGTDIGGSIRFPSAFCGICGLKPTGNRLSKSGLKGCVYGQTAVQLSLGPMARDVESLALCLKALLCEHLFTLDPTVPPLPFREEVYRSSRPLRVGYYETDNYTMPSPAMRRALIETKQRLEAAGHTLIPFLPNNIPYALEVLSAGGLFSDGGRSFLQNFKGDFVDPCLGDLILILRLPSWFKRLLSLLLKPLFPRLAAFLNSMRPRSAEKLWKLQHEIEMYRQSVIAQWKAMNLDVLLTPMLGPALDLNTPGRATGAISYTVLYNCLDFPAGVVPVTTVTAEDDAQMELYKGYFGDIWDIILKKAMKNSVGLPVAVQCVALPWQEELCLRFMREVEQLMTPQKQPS
Kind of experiment: FAAH assay, rat FAAH enzyme inactivation (kinact/Ki). Format: biochemical. The settings on record: oleamide 50 μM, 30° C.; for rFAAH kinact/Ki: in vitro, pH 7.4; for kinact/KI: pH 7.4, in vitro, read-out: rFAAH kinact/Ki. The protocol: (§1) The FAAH assay was carried out in 384-well clear polystyrene plates (Evergreen Scientific) in a total volume of 50 μl per well in a manner similar to that described by Mileni et al., Proc. Nat. Acad. Sci. 2008, 105, 12820-12824. All percents are by volume. Serial dilutions of compound were initially prepared in 100% DMSO, and then diluted two-fold into HPLC-grade H2O to give 50% DMSO. To each well, was placed the reaction mixture (40 μl) containing 1-4 nM FAAH, 50 mM NaPi, pH 7.4, 3 mM α-ketoglutarate, 0.15 mM NADH, 7.5 U/ml glutamate dehydrogenase, 2 mM ADP, 1 mM EDTA, and 0.1% Triton X-100 (The concentration shown for each component is the final concentration in the assay). To this mixture, was added 5 μl of a compound of Examples 1 to 101 at various concentrations in 50% DMSO (or 5 μl 50% DMSO for controls). This was immediately followed by the addition of 5 μl oleamide (500 μM) dissolved in 75% EtOH/25% DMSO and the reaction mixture was mixed for 1.5 min. The final concentrations of DMSO and EtOH in the assay were each 7.5%. The reactions were incubated at 30° C. and the absorbance at 340 nm was collected over a period of 90 min with readings taken in 30-second intervals using SpectraMax Plus^384 Microplate Spectrophotometer (Molecular Devices, Sunnyvale, Calif.). The human FAAH and rat FAAH used in the assay was prepared as described in the patent application WO 2006/067613 using wild-type E. coli cells transformed in St. Louis, Mo., U.S.A. The purity of the enzyme was greater than 98% based on an analysis by SDS-polyacrylamide gel electrophoresis followed by Coomassie Blue staining.
(§2) Reaction progress curves were corrected for the non-enzymatic oxidation of NADH by subtraction of absorbancies at each time point obtained from control reactions containing no FAAH enzyme. The loss of enzyme activity as a function of time is well-described by the following mathematical equation (1) for a mono-exponential decay: […]
(§3) where At represents the absorbance at time t, A0 represents the absorbance at time zero, and C represents a constant. Observed rates of enzyme inactivation (kobs) were determined from the non-linear reaction progress curves by fitting the corrected absorbancies to an equation for a mono-exponential decay using the third-party Microsoft Excel plug-in, XLfit (IDBS Limited). Secondary plots of kobs vs. inhibitor concentration were prepared from kobs values obtained from progress curves. Second-order rates for enzyme inactivation, expressed as kinact/Ki (M^−1 s^−1), were calculated from the slopes from linear regression analysis of the secondary plot of kobs vs. inhibitor concentration as defined in following equation (2), where [I]<<Ki:
(§4) The concentration of substrate in the assay was equal to the Km for oleamide of 50 μM. Therefore, reported kinact/Ki values are obtained by multiplying resulting slopes by a factor of two (i.e. slope=kinact/(Ki*2)).
(§5) Table 1, below, lists human FAAH (hFAAH) and rat FAAH (rFAAH) enzyme inhibition values for Examples 1-101 as a ratio of kinact/Ki (M^−1 s^−1).

The target of the next experiment is T2, human FAAH (Homo sapiens, UniProt O00519).
T2 construct: made in house; host or cells: E. coli
T2 sequence (O00519 1-579): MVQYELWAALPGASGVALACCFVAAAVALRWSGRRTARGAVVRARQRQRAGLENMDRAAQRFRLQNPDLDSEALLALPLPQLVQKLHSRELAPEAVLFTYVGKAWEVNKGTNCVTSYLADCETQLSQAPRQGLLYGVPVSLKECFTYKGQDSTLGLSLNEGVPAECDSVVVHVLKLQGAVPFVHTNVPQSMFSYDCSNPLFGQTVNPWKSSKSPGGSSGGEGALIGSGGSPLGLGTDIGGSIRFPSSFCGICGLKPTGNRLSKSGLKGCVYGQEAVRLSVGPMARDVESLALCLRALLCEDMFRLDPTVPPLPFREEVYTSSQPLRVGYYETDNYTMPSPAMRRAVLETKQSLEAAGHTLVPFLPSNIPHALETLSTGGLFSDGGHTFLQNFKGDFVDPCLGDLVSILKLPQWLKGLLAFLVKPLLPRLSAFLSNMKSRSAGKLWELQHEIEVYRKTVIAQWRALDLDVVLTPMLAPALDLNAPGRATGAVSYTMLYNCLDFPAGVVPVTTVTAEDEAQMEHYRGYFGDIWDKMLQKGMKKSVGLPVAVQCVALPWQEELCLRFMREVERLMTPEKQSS
Kind of experiment: FAAH assay, human FAAH enzyme inactivation (kinact/Ki). Format: biochemical. The note with it: oleamide 50 μM, 30° C.; for hFAAH kinact/Ki: in vitro, pH 7.4; for kinact/KI: pH 7.4, in vitro, read-out: hFAAH kinact/Ki. As for the experimental part: as §1, §2, §3, §4, §5

For `Cc1noc(NC(=O)N2CCC3(CC2)CC(c2ccc(Cl)c(Cl)c2)CO3)c1C` (single isomer, unassigned) [Example 38, 3-(3,4-dichlorophenyl)-N-(3,4-dimethylisoxazol-5-yl)-1-oxa-8-azaspiro[4.5]decane-8-carboxamide], the “rFAAH kinact/Ki” value on rat FAAH is 2380 M⁻¹ s⁻¹. At human FAAH, the “hFAAH kinact/Ki” value worked out at 2050 M⁻¹ s⁻¹.
Turning to `Cc1noc(NC(=O)N2CCC3(CC2)CC(c2cc(F)cc(Cl)c2)CO3)c1C` (single isomer, unassigned) [Example 40, 3-(3-chloro-5-fluorophenyl)-N-(3,4-dimethylisoxazol-5-yl)-1-oxa-8-azaspiro[4.5]decane-8-carboxamide], the “rFAAH kinact/Ki” value at rat FAAH turned out to be 3740 M⁻¹ s⁻¹. Also, the “hFAAH kinact/Ki” value at human FAAH worked out at 2470 M⁻¹ s⁻¹.
For the molecule `Cc1noc(NC(=O)N2CCC3(CC2)CC(c2cccc(C(F)(F)F)c2)CO3)c1C` (single isomer, unassigned) [Example 66, N-(3,4-dimethylisoxazol-5-yl)-3-[3-(trifluoromethyl)phenyl]-1-oxa-8-azaspiro[4.5]decane-8-carboxamide], the figures for the kinact/KI at rat FAAH and at human FAAH were 2920 M⁻¹ s⁻¹ and 2140 M⁻¹ s⁻¹, respectively.
As for `Cc1noc(NC(=O)N2CCC3(CC2)CC(c2cccc(C(F)(F)F)c2)CO3)c1C` (single isomer, unassigned) [Example 67, N-(3,4-dimethylisoxazol-5-yl)-3-[3-(trifluoromethyl)phenyl]-1-oxa-8-azaspiro[4.5]decane-8-carboxamide], the “rFAAH kinact/Ki” value at rat FAAH was 2680 M⁻¹ s⁻¹. Besides, the “hFAAH kinact/Ki” value at human FAAH amounted to 1330 M⁻¹ s⁻¹.
Regarding `CCCc1noc(NC(=O)N2CCC3(CC2)CC(c2ccc(Cl)c(Cl)c2)CO3)c1C` (single isomer, unassigned) [Example 69, 3-(3,4-dichlorophenyl)-N-(3-n-propyl-4-methylisoxazol-5-yl)-1-oxa-8-azaspiro[4.5]decane-8-carboxamide], the figures for the kinact/KI at rat FAAH and at human FAAH were 4880 M⁻¹ s⁻¹ and 960 M⁻¹ s⁻¹, respectively.
For `Cc1nnc(NC(=O)N2CCC3(CC2)CC(c2cccc(OC(F)(F)F)c2)CO3)o1` (single isomer, unassigned) [Example 70, N-(5-methyl-1,3,4-oxadiazol-2-yl)-3-[3-(trifluoromethoxy)phenyl]-1-oxa-8-azaspiro[4.5]decane-8-carboxamide], the kinact/KI at rat FAAH was 2390 M⁻¹ s⁻¹; at human FAAH it was 2110 M⁻¹ s⁻¹.
Regarding `Cc1noc(NC(=O)N2CCC3(CC2)C[C@H](c2cccc(-c4ccc(F)c(F)c4)c2)CO3)c1C` [Example 58, (3R)-3-(3′,4′-difluorobiphenyl-3-yl)-N-(3,4-dimethylisoxazol-5-yl)-1-oxa-8-azaspiro[4.5]decane-8-carboxamide], the kinact/KI at rat FAAH stood at 707 M⁻¹ s⁻¹; at human FAAH it was 2780 M⁻¹ s⁻¹.
As for `Cc1noc(NC(=O)N2CCC3(CC2)C[C@H](c2cccc(-c4ccc(OC(F)(F)F)cc4)c2)CO3)c1C` [Example 64, (3R)—N-(3,4-dimethylisoxazol-5-yl)-3-[4′-(trifluoromethoxy)biphenyl-3-yl]-1-oxa-8-azaspiro[4.5]decane-8-carboxamide], the results for the kinact/KI at rat FAAH and on human FAAH were 588 M⁻¹ s⁻¹ and 1490 M⁻¹ s⁻¹, respectively.
In the case of `Cn1nnnc1NC(=O)N1CCC2(CC1)C[C@H](c1ccc(OCc3cccc(F)c3)cc1)CO2` [Example 86, (3R)-3-{4-[(3-fluorobenzyl)oxy]phenyl}-N-(1-methyl-1H-tetrazol-5-yl)-1-oxa-8-azaspiro[4.5]decane-8-carboxamide], the kinact/KI at rat FAAH worked out at 11200 M⁻¹ s⁻¹; on human FAAH, 28400 M⁻¹ s⁻¹.
Take `Cc1noc(NC(=O)N2CCC3(CC2)C[C@H](c2cccc(-c4ccc(C(F)(F)F)cn4)c2)CO3)c1C` [Example 98, (3R)—N-(3,4-dimethylisoxazol-5-yl)-3-{3-[5-(trifluoromethyl)pyridin-2-yl]phenyl}-1-oxa-8-azaspiro[4.5]decane-8-carboxamide]: the kinact/KI at rat FAAH turned out to be 1630 M⁻¹ s⁻¹; at human FAAH it was 2820 M⁻¹ s⁻¹.
